Test results from ChEMBL document CHEMBL1150070, “A novel cytotoxic macrolide, superstolide B, related to superstolide A, from the New Caledonian marine sponge Neosiphonia superstes” (J Nat Prod, 1994).
Values after ≈ are worked out from the molar mass of the structure shown.

Tests used:
Assay type in all cases: functional, cell-based
[1] = test system: KB; assay: Cytotoxicity against human KB cells
[2] = Cytotoxicity against human NSCLC-N6-L16 cells
[3] = test system: P388; assay: Cytotoxicity against mouse P388 cells

In the case of `CO[C@@H]1C[C@H](OC(N)=O)[C@@H]2C=C[C@@H]3/C=C(C)/C=C/[C@@H](C)[C@H](/C(C)=C/[C@@H](C)NC(C)=O)OC(=O)/C=C/C=C(C)\C=C\[C@]3(C)[C@@H]2C1` [SUPERSTOLIDE B], the IC50 [1] is reported as 5 ng/mL (≈ 8.24 nM), the IC50 [2] is reported as 39 ng/mL (≈ 64.3 nM) and the IC50 [3] is reported as 3 ng/mL (≈ 4.94 nM).
